Data taken from article PMC12436592 (Nature Communications, 2025).
“And” between values parts separate entries of the source, which are not always exact repeats. Identical values can stand only once.

Columns and labels:
[1] = target: T1, hP2X7R (Homo sapiens, UniProt Q99572); experiment: Calcium influx assay, 1321N1 astrocytoma cells, BzATP EC80; assay type: cell-based; design: expressed in transfected cells; conditions: for IC50: 1321N1 cells, BzATP EC80, mean ± SD
T1 sequence (Q99572 1-595): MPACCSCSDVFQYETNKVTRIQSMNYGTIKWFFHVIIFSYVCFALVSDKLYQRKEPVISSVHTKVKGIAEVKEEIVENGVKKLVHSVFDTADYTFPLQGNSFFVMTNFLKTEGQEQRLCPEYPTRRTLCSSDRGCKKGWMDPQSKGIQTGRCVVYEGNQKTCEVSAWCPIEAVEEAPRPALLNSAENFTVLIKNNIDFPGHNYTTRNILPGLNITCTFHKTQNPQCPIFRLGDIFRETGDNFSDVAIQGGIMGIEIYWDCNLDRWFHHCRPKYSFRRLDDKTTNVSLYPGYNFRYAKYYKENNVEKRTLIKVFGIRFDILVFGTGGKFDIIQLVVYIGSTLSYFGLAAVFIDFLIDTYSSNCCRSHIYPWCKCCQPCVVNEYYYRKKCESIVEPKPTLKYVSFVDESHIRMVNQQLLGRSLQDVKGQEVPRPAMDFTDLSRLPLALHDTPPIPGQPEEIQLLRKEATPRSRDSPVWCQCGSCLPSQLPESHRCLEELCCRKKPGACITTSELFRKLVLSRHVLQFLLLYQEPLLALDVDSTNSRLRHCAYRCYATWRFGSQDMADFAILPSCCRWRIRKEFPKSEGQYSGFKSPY
Source text: For 1321N1 astrocytoma cells stably expressing the human, rat, or mouse P2X7Rs, or hP2X2Rs or hP2X4Rs, the fluorescent Ca^2+-chelating dye Fluo-4 acetoxymethyl ester (Fluo-4 AM, Thermo Fisher Scientific, Dreieich, Germany) was used. For 1321N1 astrocytoma cell lines recombinantly expressing the hP2X1Rs or hP2X3Rs, the FLIPR® Calcium 5 Assay Kit (Molecular Devices, San José, CA, USA) was employed. Human, rat, and mouse P2X7Rs as well as hP2X1Rs, hP2X2Rs, hP2X3Rs, and hP2X4Rs were recombinantly expressed in 1321N1 astrocytoma cells using a retroviral expression system[72]–[74].
(§1) On the first day, 45,000 cells per well (30,000 cells for the human P2X3 receptor-expressing cells) were seeded into a 96-well polystyrene microplate with a black, flat bottom in a final volume of 200 µL. After overnight incubation at 37 °C and 10% CO2 (5% CO2 for the human P2X3R-expressing cell line), the medium was removed by inverting the plate, and the cells were loaded with dye solution. Hanks’ balanced salt solution (HBSS, Thermo Fisher Scientific, Dreieich, Germany) was used as the assay buffer for human P2X1R, P2X2R, P2X3R, and P2X4R. For the P2X7Rs, a different assay buffer was used: 150 mM sodium-glutamate, 5 mM KCl, 0.5 mM CaCl2, 0.1 mM MgCl2, 10 mM D-glucose, 25 mM 4-(2-hydroxyethyl)-1-piperazineethanesulfonic acid (HEPES), pH 7.4. The dye solutions were freshly prepared. The Fluo-4 AM solution contained 3 µM of Fluo-4 AM in assay buffer and 1% of the non-ionic detergent Pluronic F-127® (Sigma-Aldrich, Taufkirchen, Germany). The Calcium 5 dye, used for hP2X1Rs and hP2X3Rs, was prepared in HBSS buffer. Cells were loaded with Fluo-4 AM and incubated for 1 h at room temperature with gentle shaking (100 rpm), while those loaded with the Calcium 5 dye were incubated for 1 h at 37 °C. After incubation, the dye solution was carefully removed from the plate, and buffer was added to the cells for the evaluation of agonists. […] The agonist solution was prepared in a 96-well transparent plate, obtaining the respective EC80 values. As a control, assay buffer without the test compound was used. After 30 min of incubation with antagonist, the plates were measured using a fluorescence imaging plate reader NOVOstar (BMG Labtech GmbH, Offenburg, Germany) at an excitation wavelength of 485 nm and an emission wavelength of 520 nm, for 30 s at 0.4 s intervals. Calcium influx measurements were then initiated by automatic addition of 20 µL of agonist solution by the plate reader’s pipetting device. Data were analyzed using Microsoft Excel and GraphPad Prism (Version 8.0, San Diego, CA, USA). EC80 and IC50 values were calculated using nonlinear regression with a sigmoidal dose-response equation.

[2] = target: T2, rP2X7R (Rattus norvegicus, UniProt Q64663); experiment: as above; assay type: cell-based; design: expressed in transfected cells; conditions: for IC50: 1321N1 cells, BzATP EC80, mean ± SD
T2 sequence (Q64663 1-595): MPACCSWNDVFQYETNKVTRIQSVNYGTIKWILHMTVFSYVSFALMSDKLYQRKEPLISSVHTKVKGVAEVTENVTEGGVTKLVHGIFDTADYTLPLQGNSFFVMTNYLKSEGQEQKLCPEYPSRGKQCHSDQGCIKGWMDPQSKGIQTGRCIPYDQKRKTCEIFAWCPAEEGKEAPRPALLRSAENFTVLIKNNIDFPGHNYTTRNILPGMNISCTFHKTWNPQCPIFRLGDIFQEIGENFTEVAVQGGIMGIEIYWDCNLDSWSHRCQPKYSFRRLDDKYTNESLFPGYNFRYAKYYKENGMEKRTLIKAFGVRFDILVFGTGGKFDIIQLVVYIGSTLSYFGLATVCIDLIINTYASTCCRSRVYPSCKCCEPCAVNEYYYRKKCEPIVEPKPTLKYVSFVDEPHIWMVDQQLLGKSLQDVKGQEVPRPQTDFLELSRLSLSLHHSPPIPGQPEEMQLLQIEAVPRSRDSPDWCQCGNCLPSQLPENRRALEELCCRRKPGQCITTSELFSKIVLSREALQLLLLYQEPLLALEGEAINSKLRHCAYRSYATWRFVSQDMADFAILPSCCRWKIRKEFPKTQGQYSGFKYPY
Source text: . For 1321N1 astrocytoma cells stably expressing the human, rat, or mouse P2X7Rs, or hP2X2Rs or hP2X4Rs, the fluorescent Ca^2+-chelating dye Fluo-4 acetoxymethyl ester (Fluo-4 AM, Thermo Fisher Scientific, Dreieich, Germany) was used. For 1321N1 astrocytoma cell lines recombinantly expressing the hP2X1Rs or hP2X3Rs, the FLIPR® Calcium 5 Assay Kit (Molecular Devices, San José, CA, USA) was employed. Human, rat, and mouse P2X7Rs as well as hP2X1Rs, hP2X2Rs, hP2X3Rs, and hP2X4Rs were recombinantly expressed in 1321N1 astrocytoma cells using a retroviral expression system[72]–[74].
as §1

| Compound | IC50 [1] | normalized calcium signal, hP2X7R IC50 curve ([1]; Log(c) M -9, 0.001 µM) | activity at 0.03 µM ([2]; 1321-N1, Log(c) M -7.52288, read-out: normalized calcium signal, rP2X7R IC50 curve) [%] | activity at 0.01 µM ([2]; 1321-N1, Log(c) M -8, read-out: normalized calcium signal, rP2X7R IC50 curve) [%] | IC50 [2] [nM] | normalized calcium signal, rP2X7R IC50 curve ([2]; Log(c) M -7.52288, 0.03 µM) | normalized calcium signal, rP2X7R IC50 curve ([2]; Log(c) M -8, 0.01 µM) | normalized calcium signal, rP2X7R IC50 curve ([2]; Log(c) M -8.52288, 0.003 µM) | activity at 0.0003 µM ([1]; 1321-N1, Log(c) M -9.52288, read-out: normalized calcium signal, hP2X7R IC50 curve) [%] | activity at 0.0001 µM ([1]; 1321-N1, Log(c) M -10, read-out: normalized calcium signal, hP2X7R IC50 curve) [%] | activity at 30 pM ([1]; 1321-N1, Log(c) M -10.5229, read-out: normalized calcium signal, hP2X7R IC50 curve) [%] | normalized calcium signal, hP2X7R IC50 curve ([1]; Log(c) M -9.52288, 0.0003 µM) | normalized calcium signal, hP2X7R IC50 curve ([1]; Log(c) M -10, 0.0001 µM) | times more potent than UB-ALT-P30 on the hP2X7R ([1]; calcium influx) | activity at 0.003 µM ([2]; 1321-N1, Log(c) M -8.52288, read-out: normalized calcium signal, rP2X7R IC50 curve) [%] | activity at 0.001 µM ([2]; 1321-N1, Log(c) M -9, read-out: normalized calcium signal, rP2X7R IC50 curve) [%] | activity at 0.0003 µM ([2]; 1321-N1, Log(c) M -9.52288, read-out: normalized calcium signal, rP2X7R IC50 curve) [%] | normalized calcium signal, rP2X7R IC50 curve ([2]; Log(c) M -9, 0.001 µM) | times more potent than UB-ALT-P30 on the rP2X7R ([2]; calcium influx) |
| --- | --- | --- | --- | --- | --- | --- | --- | --- | --- | --- | --- | --- | --- | --- | --- | --- | --- | --- | --- |
| O=C(NNc1ccccc1Cl)C12CC3CC(CC(C3)C1)C2 [UB-ALT-P30, reference compound] | 17.8 nM and 18 nM | 71.6317 and 73.6475 and 92.6717 and 89.8426 and 81.3931 | 94.8 | 98.3 | 116 ± 50 | 96.1595 and 98.0559 and 102.654 and 103.189 | 98.7308 and 105.449 and 107.576 and 114.231 and 110.835 | 87.0316 and 95.5173 and 98.7016 and 89.3009 and 111.685 and 110.916 and 108.743 | – | – | – | – | – | – | – | – | – | – | – |
| CC12CC3CC1(C)C1(C)CC3(C(=O)NNc3ccccc3Cl)CC21C [UB-MBX-46] | 0.514 ± 0.035 nM | – | – | – | 40.6 ± 10.4 | – | 92.0673 and 92.0463 and 93.4263 and 100.969 and 74.9729 and 70.4733 | 98.336 and 95.4706 and 107.675 and 91.9395 | 82.4 | 110 | 100 | 83.2395 and 75.8405 and 85.4678 and 91.9881 | 91.6497 and 103.346 and 103.977 | ~ 35 x | 92.9 | 83 | 92.1 | 97.4351 | ~ 3 x |
